≈ marks a conversion by molar mass, not a printed value. Counter-ions that a name gives are not always drawn.
Legend:
[1] = Aqueous solubility at two pH levels; type: physicochemical; details: aqueous solution
Rat PK (p.o.) = type: in vivo; details: plasma, po
melanoma cell lines = details: series of melanoma cell lines; Bowers et al. 2008; cited from earlier work
HCT116 cells = details: Ying et al. 2008b; cited from earlier work
HDAC = details: cells treated with compound; Ying et al. 2008a; read-out: IC50 HDAC inhibition; cited from earlier work
HEK293 = HEK293 normal cell line; Zeng et al. 2010; cited from earlier work
HLF cells = details: HLF normal cell line; Zeng et al. 2010; cited from earlier work
MDA-MB231 = details: Taori et al. 2008; cited from earlier work
HCT 116 cells = details: Zeng et al. 2010; cited from earlier work
[2] = tested on: HDAC proteins from class I and class II; details: purified full length HDAC proteins; Bowers et al. 2008; cited from earlier work
[3] = 10 mg/kg, Vehicle (0.02N HCl sol.)
[4] = 15 mg/kg, Vehicle (0.1N citrate buffer)

Row | SMILES | solubility ([1]; pH 3, aqueous buffer) [mg/mL] | solubility ([1]; pH 6, aqueous buffer) [mg/mL] | AUC(0-inf) (Rat PK (p.o.); [3]) [ng·h/mL] | Cmax (Rat PK (p.o.); [3]) [ng/mL] | Tmax (Rat PK (p.o.); [3]) [h] | half-life (Rat PK (p.o.); [3]) [h] | also measured
1 | CC(C)[C@@H]1NC(=O)C(C)(C)NC(=O)c2csc(n2)CNC(=O)C[C@@H](/C=C/CCSC(=O)[C@H](N)C(C)C)OC1=O.Cl [Example 1, (R)—S-((E)-4-((7S,10S)-7-isopropyl-4,4-dimethyl-2,5,8,12-tetraoxo-9-oxa-16-thia-3,6,13,18-tetraazabicyclo[13.2.1]octadeca-1(17),15(18)-dien-10-yl)but-3-en-1-yl) 2-amino-3-methylbutanethioate Hydrochloride] | 8.67 | 10.5 | 257 | 86 | 0.42 | 8.53 | –
2 | CC(C)[C@H](N)C(=O)SCC/C=C/[C@@H]1CC(=O)NCc2nc(cs2)C(=O)NC(C)(C)C(=O)N[C@@H](C(C)C)C(=O)O1.Cl [Example 2, (S)—S-((E)-4-((7S,10S)-7-isopropyl-4,4-dimethyl-2,5,8,12-tetraoxo-9-oxa-16-thia-3,6,13,18-tetraazabicyclo[13.2.1]octadeca-1(17),15(18)-dien-10-yl)but-3-en-1-yl) 2-amino-3-methylbutanethioate Hydrochloride] | 12.3 | 18 | 267 | 123 | 0.48 | 8.23 | –
3 | CC(C)[C@H](N)C(=O)SCC/C=C/[C@@H]1CC(=O)NCc2nc(cs2)C(=O)NC(C)(C)C(=O)N[C@@H](C(C)C)C(=O)O1.O=S(=O)(O)c1ccccc1 [Example 3, (S)—S-((E)-4-((7S,10S)-7-isopropyl-4,4-dimethyl-2,5,8,12-tetraoxo-9-oxa-16-thia-3,6,13,18-tetraazabicyclo[13.2.1]octadeca-1(17),15(18)-dien-10-yl)but-3-en-1-yl) 2-amino-3-methylbutanethioate Benzenesulfonate] | 7.5 | – | – | – | – | – | AUC(0-inf) (Rat PK (p.o.); [4]): 583 ng·h/mL; Cmax (Rat PK (p.o.); [4]): 253 ng/mL; Tmax (Rat PK (p.o.); [4]): 0.6 h; half-life (Rat PK (p.o.); [4]): 12.4 h
4 | CC(C)[C@@H]1NC(=O)C(C)(C)NC(=O)c2csc(n2)CNC(=O)C[C@@H](/C=C/CCSC(=O)[C@H](C)N)OC1=O [Example 4, (S)—S-((E)-4-((7S,10S)-7-isopropyl-4,4-dimethyl-2,5,8,12-tetraoxo-9-oxa-16-thia-3,6,13,18-tetraazabicyclo[13.2.1]octadeca-1(17),15(18)-dien-10-yl)but-3-en-1-yl) 2-aminopropanethioate Oxalate] | 15.4 | 25.2 | 176 | 51 | 1 | 6.09 | –
5 | CC(C)[C@@H]1NC(=O)C(C)(C)NC(=O)c2csc(n2)CNC(=O)C[C@@H](/C=C/CCSC(=O)[C@@H](C)N)OC1=O [Example 5, (R)—S-((E)-4-((7S,10S)-7-isopropyl-4,4-dimethyl-2,5,8,12-tetraoxo-9-oxa-16-thia-3,6,13,18-tetraazabicyclo[13.2.1]octadeca-1(17),15(18)-dien-10-yl)but-3-en-1-yl) 2-aminopropanethioate Oxalate] | 45.5 | 41.8 | – | – | – | – | –
6 | CC(C)[C@@H]1NC(=O)C(C)(C)NC(=O)c2csc(n2)CNC(=O)C[C@@H](/C=C/CCSC(=O)CN(C)C)OC1=O [Example 6, S-((E)-4-((7S,10S)-7-isopropyl-4,4-dimethyl-2,5,8,12-tetraoxo-9-oxa-16-thia-3,6,13,18-tetraazabicyclo[13.2.1]octadeca-1(17),15(18)-dien-10-yl)but-3-en-1-yl) 2-(dimethylamino)ethanethioate] | 2.45 (≈ 4.32 mM) | 2.32 (≈ 4.09 mM) | 272 | 107 | 0.83 | 5.86 | –
7 | CC(C)[C@@H]1NC(=O)C(C)(C)NC(=O)c2csc(n2)CNC(=O)C[C@@H](/C=C/CCSC(=O)c2cccnc2)OC1=O [Example 7, S-((E)-4-((7S,10S,Z)-7-isopropyl-4,4-dimethyl-2,5,8,12-tetraoxo-9-oxa-3,6,13-triaza-1(4,2)-thiazolacyclotetradecaphane-10-yl)but-3-en-1-yl) pyridine-3-carbothioate] | – | – | 240 | 150 | 0.33 | 6.88 | –
8 | CC(C)[C@@H]1NC(=O)[C@]2(C)CSC(=N2)c2csc(n2)CNC(=O)C[C@@H](/C=C/CCS)OC1=O [largazole thiol] | – | – | – | – | – | – | IC50 (melanoma cell lines): 380 to 2600 nM; GI50 (HCT116 cells): 38 nM; IC50 (HDAC): 209 nM
9 | CCCCCCCC(=O)SCC/C=C/[C@@H]1CC(=O)NCc2nc(cs2)C2=N[C@@](C)(CS2)C(=O)N[C@@H](C(C)C)C(=O)O1 [largazole, Largazole] | – | – | – | – | – | – | IC50 (melanoma cell lines): 45 to 315 nM; GI50 (HCT116 cells): 44 nM; GI50 (HEK293): 1360 nM; GI50 (HLF cells): 980 nM; GI50 (MDA-MB231): 7.7 nM; IC50 (HDAC): 51 nM; GI50 (HCT 116 cells): 80 nM; HDAC inhibition in vitro compared to the thiol [2]: much weaker HDAC inhibitor; preference for HDACs 1, 2, and 3 over HDAC6 [2]: pronounced preference

Reference: patent US11203602B2, “Thioester prodrugs of macrocycles as inhibitors of histone deacetylases” (OnKure, Inc., priority 2016, dated 2021)
